Results published in ChEMBL document CHEMBL1125302, “Prodrugs of nitroxyl as inhibitors of aldehyde dehydrogenase” (J Med Chem, 1992).
Activity calls are given as the source filed them. The calls are words filed in the database; no cut-off is given here.

Columns and labels:
[1] = In vitro inhibitory activity against yeast […] dehydrogenase; Active; conditions: Saccharomyces cerevisiae
[2] = Inhibitory activity against porcine […] dehydrogenase; Active; conditions: Sus scrofa

Activity [1] | Activity [2] | SMILES
Active | Active | CC(C)(C)OC(=O)N(OC(=O)c1ccccc1)S(=O)(=O)c1ccccc1
 | Active | N#CN(OC(=O)c1ccccc1)C(=O)c1ccccc1
Active | Active | CC(=O)ON(C(=O)OC(C)(C)C)S(=O)(=O)c1ccccc1
